This note sets out measurements from patent US20180311342A1, “IMMUNOSTIMULATING AGENT” (AJINOMOTO CO., INC., priority 2017, published 2018).

Assay type in all cases: in vivo, BALB/c mice
Experiment [1] concerns anti-OVA-specific IgG1 subclass antibody. In words: Adjuvant activity test: anti-OVA-specific IgG1 subclass antibody in serum of OVA-immunized mice (ELISA). Conditions: after primary immunization, serum 2 weeks later; OVA 5 μg + compound 0.256 μmol in 5% αCD-added saline (Addavax mixed with saline at 1:1), dorsal-subcutaneous; compared to OVA single administration group. On the technique in general: An ELISA detects its analyte on a solid surface through an enzyme-linked reagent.

Experiment [2] concerns anti-OVA-specific IgG1 and IgG2a subclass antibody production. Kind of experiment: Evaluation test of adjuvant activity (overall conclusion from anti-OVA IgG1 and IgG2a production). Conditions: compound 0.256 μmol in 5% αCD-added saline with OVA 5 μg, dorsal-subcutaneous. Here is the method:
8-Week-old female BALB/c mice were divided into groups (N=6), and each group was primarily immunized by dorsal-subcutaneous administration of (1) ovalbumin (OVA) (5 μg) dissolved in saline as an antigen (OVA single administration group), (2) OVA 5 μg and Addavax™ (mixed with saline at 1:1) dissolved in saline (Addavax™ administration group) as positive control adjuvant, (3) OVA 5 μg and SZ137 0.256 μmol dissolved or dispersed in 5% α-cyclodextrin (hereinafter to be simply referred to as αCD)-added saline (SZ137 administration group), (4) OVA (5 μg) and SZ138 (0.256 μmol) dissolved or dispersed in 5% αCD-added saline (SZ138 administration group), (5) OVA (5 μg) and SZ142 (0.256 μmol) dissolved or dispersed in 5% αCD-added saline (SZ142 administration group), (6) OVA (5 μg) and SZ144 (0.256 μmol) dissolved or dispersed in 5% αCD-added saline (SZ144 administration group), (7) OVA (5 μg) and SZ145 (0.256 μmol) dissolved or dispersed in 5% αCD-added saline (SZ145 administration group), (8) OVA (5 μg) and SZ146 (0.256 μmol) dissolved or dispersed in 5% αCD-added saline (SZ146 administration group), (9) OVA (5 μg) and SZ147 (0.256 μmol) dissolved or dispersed in 5% αCD-added saline (SZ147 administration group), (10) OVA (5 μg) and SZ148 (0.256 μmol) dissolved or dispersed in 5% αCD-added saline (SZ148 administration group), each per mouse. Two week later, the secondary immunization was carried out by dorsal-subcutaneous administration of solutions or dispersions similar to those of the above-mentioned (1)-(10) again. […]
To a 96 well plate was added 5 μg/ml OVA at 100 µl/well, and the mixture was incubated at 4° C. overnight. After incubation, the mixture was washed three times with 200 μl of PBS-T (PBS (phosphate buffered saline)+0.05% (v/v) Tween 20) per well, and blocked with 100 μl of 5% FCS (fetal calf serum)/PBS solution per well at room temperature for 1-2 hr. Thereafter, the mixture was washed three times with PBS-T (200 μl/well), a diluted serum sample (100 l/well) or the same amount of 5% FCS/PBS solution as a control was added, and the mixture was incubated at 37° C. for 1 hr. To calculate concentration of the antibody, the standard of an anti-OVA-specific IgG1 subclass antibody diluted with 2% FCS/PBS solution was added at 100 ng/ml, 50 ng/ml, 25 ng/ml, 12.5 ng/ml, 6.25 ng/ml, 3.125 ng/ml, 1.56 ng/ml, 0.781 ng/ml, 0.391 ng/ml, 0.195 ng/ml, 0.098 ng/ml, 0 ng/ml, per 1 well. When an anti-OVA-specific IgG2a subclass antibody was measured, the standard of an anti-OVA-specific IgG2a subclass antibody was added at 50 ng/ml, 25 ng/ml, 12.5 ng/ml, 6.25 ng/ml, 3.125 ng/ml, 1.56 ng/ml, 0.781 ng/ml, 0.391 ng/ml, 0.195 ng/ml, 0.098 ng/ml, 0.049 ng/ml, 0 ng/ml, per 1 well. Thereafter, similar to the samples, the mixture was washed five times with PBS-T (200 μl/well), a diluted biotinylated anti-mouse IgG1 antibody and IgG2a antibody were added (100 μl/well), and the mixture was incubated at 37° C. for 45 min. Thereafter, the mixture was washed five times with PBS-T (200 μl/well), a diluted anti-biotin-HRP antibody was added (100 μl/well), and the mixture was incubated at 37° C. for another 30 min. Thereafter, the mixture was washed five times with PBS-T (200 μl/well), TMB substrate solution was added (100 μl/well), and the mixture was incubated at room temperature for 10-15 min. Thereafter, a reaction quenching liquid (2N sulfuric acid solution) was added (50 l/well) to discontinue a color developing reaction, and the absorbance (OD Value=450 nm) was measured by a microplate reader. A standard curve was drawn from the measured OD values, and the concentration was calculated. […]

The test system of experiment [3] is anti-OVA-specific IgG2a subclass antibody. In words: Adjuvant activity test: anti-OVA-specific IgG2a subclass antibody in serum of OVA-immunized mice (ELISA). Conditions: after primary immunization, serum 2 weeks later; OVA 5 μg + compound 0.256 μmol in 5% αCD-added saline (Addavax mixed with saline at 1:1), dorsal-subcutaneous; compared to OVA single administration group.

The mark [4] stands for this setting: conclusion from IgG1/IgG2a after primary immunization.

With `CCCCCCCCCCCCCCCCCCCCCC(=O)N[C@@H](CSSC[C@H](NC(=O)CCCCCCCCCCCCCCCCCCCCC)C(=O)NCCCCCCCCCCCC)C(=O)NCCCCCCCCCCCC` [SZ173, N-[(1R)-1-[[[(2R)-2-(docosanoylamino)-3-(dodecylamino)-3-oxo-propyl]disulfanyl]methyl]-2-(dodecylamino)-2-oxo-ethyl]docosanamide], the “anti-OVA-specific IgG1 subclass antibody production” value in experiment [1] is reported as “showed a tendency to increase”. In addition, in experiment [2] (setting [4]), the adjuvant activity result was “has an adjuvant activity”. Besides, in experiment [3], the “anti-OVA-specific IgG2a subclass antibody production” value is recorded as “significantly increased”.
Take `CCCCCCCCCCCCNC(=O)[C@H](CCCNC(=N)N)N(Cc1ccccc1)Cc1ccccc1` [SZ174, (2S)-2-(Dibenzylamino)-N-dodecyl-5-guanidino-pentanamide]: the “anti-OVA-specific IgG1 subclass antibody production” value in experiment [1] is on record as “tended to increase”. Further, in experiment [2] (setting [4]), the adjuvant activity result was “have an adjuvant activity”. In addition, in experiment [3], the “anti-OVA-specific IgG2a subclass antibody production” value was “significantly increased”.
For `CCCCCCCCCCCCCCCC(=O)NCCCCCNC(=N)N` [SZ175, N-(5-guanidinopentyl)hexadecanamide], the “anti-OVA-specific IgG1 subclass antibody production” value in experiment [1] is recorded as “tended to increase”. For the same compound, the adjuvant activity result in experiment [2] (setting [4]) is recorded as “have an adjuvant activity”. In addition, in experiment [3], the “anti-OVA-specific IgG2a subclass antibody production” value is listed as “significantly increased”.
Take `CCCCCCCCCCCCCCCCCCCCCC(=O)NCCCCCNC(=N)N.Cl` [SZ176, N-(5-guanidinopentyl)docosanamide]: the “anti-OVA-specific IgG1 subclass antibody production” value in experiment [1] is “tended to increase”. In addition, the adjuvant activity entry in experiment [2] (setting [4]) is “have an adjuvant activity”. Besides, the “anti-OVA-specific IgG2a subclass antibody production” value in experiment [3] is on record as “significantly increased”.
`CCCCCCCCCCCCNC(=O)[C@H](CCCNC(=N)N)NC(=O)C(=O)CCCCCC.Cl` [SZ177, N-[(1S)-1-(dodecylcarbamoyl)-4-guanidino-butyl]-2-oxo-octanamide]: the “anti-OVA-specific IgG1 subclass antibody production” value in experiment [1] is on record as “tended to increase”. Also, in experiment [2] (setting [4]), the adjuvant activity result was “have an adjuvant activity”. The “anti-OVA-specific IgG2a subclass antibody production” value in experiment [3] is “significantly increased”.
In the case of `CCCCCCCCCCCCCCCCCCOC(=O)N[C@@H](CCCNC(=N)N)C(=O)NCCCCCCCCCCCC.Cl` [SZ186, octadecyl N-[(1S)-1-(dodecylcarbamoyl)-4-guanidino-butyl]carbamate hydrochloride], the “anti-OVA-specific IgG1 subclass antibody production” value in experiment [1] is “significant enhancement”. Moreover, the adjuvant activity entry in experiment [2] (setting [4]) and in experiment [2] (conclusion from IgG1/IgG2a after secondary immunization) was “have an adjuvant activity” throughout. Besides, in experiment [3], the “anti-OVA-specific IgG2a subclass antibody production” value was “significant enhancement”.
